According to patent publication US20020137929A1, “1 - (3-heterocyclylphenyl) isothiourea, -isourea, -guanidine and -amidine herbicidal agents” (Intellectual Property Department, BASF Aktiengesellschaft, priority 1998, published 2002):

What was measured:
SETVI (Foxtail, Green) = assay: Preemergence herbicidal evaluation; type: in vivo, Setaria viridis; details: rated 4-5 weeks after treatment
Method in brief: (§1)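 Seeds were mixed with potting soil and planted on about one inch of soil, then sprayed with test compound in aqueous acetone at about 0.0156 to 0.500 kg per hectare. Plants grew under standard greenhouse care and were visually rated 0-9 against untreated controls 4-5 weeks post-treatment.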

ORYSAT (Rice, Tebonnet) = assay: Preemergence herbicidal evaluation; type: in vivo, Oryza sativa, (L.) Tebonnet; details: rated 4-5 weeks after treatment
Method in brief: as §1

[1] = test system: SAGPY (Arrowhead (Pygmaea)); assay: Preemergence weed control under flooded paddy conditions; type: in vivo, Sagittaria pygmaea; details: rated 3-4 weeks after treatment
Method in brief: (§2)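 Values are visual 0-9 scores against a control for a preemergence application into paddy flood water at about 0.0313 to 0.500 kg/ha. Greenhouse duration was three to four weeks.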

[2] = test system: TRZAWR (Wheat, Winter, cv Riband); assay: Postemergence herbicidal evaluation; type: in vivo, Triticum aestivum; details: postemergence
Method in brief: (§3)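 ~2-wk seedlings; postemergence spray, 40 psi; vehicle 1:1 acetone:water + 0.5% Tween 20; rate ≈0.0156–0.500 kg/ha; greenhouse hold; scored 4–5 wk after treatment, 0–9 scale vs control; repeat tests averaged.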

CASOB (Sicklepod) = assay: Postemergence herbicidal evaluation; type: in vivo, Cassia obtusifolia; details: postemergence
Method in brief: as §3

[3] = test system: SAGPY (Arrowhead (Pygmaea)); assay: Postemergence weed control under flooded paddy conditions; type: in vivo, Sagittaria pygmaea; details: postemergence weeds, 3-4 weeks after treatment
Method in brief: (§4)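 Weeds 3 to 5 cm tall and rice seedlings at the 1.5 to 2.5 leaf stage were flooded, with water held 1.5 to 3 cm above the soil. Compounds in 50/50 v/v aqueous/acetone went into the flood water at about 0.0313 to 0.500 kg/ha. Visual 0-9 ratings versus control were made 3 to 4 weeks later.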

GALAP (Galium) [4] = assay: Preemergence herbicidal evaluation; type: in vivo, Galium aparine; details: rated 4-5 weeks after treatment
Method in brief: as §1

AMBEL (Ragweed, Common) = assay: Postemergence herbicidal evaluation; type: in vivo, Ambrosia artemisifolia; details: postemergence
Method in brief: as §3

CYPSE (Flatsedge) = assay: Preemergence weed control under flooded paddy conditions; type: in vivo, Cyperus serotinus; details: rated 3-4 weeks after treatment
Method in brief: as §2

MOOVA (Monochoria) = assay: as above; type: in vivo, Monochoria vaginalis; details: rated 3-4 weeks after treatment
Method in brief: as §2

GALAP (Galium) [5] = assay: Postemergence herbicidal evaluation; type: in vivo, Galium aparine; details: postemergence
Method in brief: as §3

[6] = test system: ECHORC (Watergrass (Calif.)); assay: Postemergence weed control under flooded paddy conditions; type: in vivo, Echinochloa oryzoides; details: postemergence weeds, 3-4 weeks after treatment
Method in brief: as §4

[7] = test system: GLXMAW (Soybean, Williams); assay: Postemergence herbicidal evaluation; type: in vivo, Glycine max, (L.) Merr. cv Williams; details: postemergence
Method in brief: as §3

[8] = test system: ECHORC (Watergrass (Calif.)); assay: Preemergence weed control under flooded paddy conditions; type: in vivo, Echinochloa oryzoides; details: rated 3-4 weeks after treatment
Method in brief: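 Silt loam, seeds in top 0.5 cm; flood held 1.5-3 cm; test cpd as acetone/water 50/50 into flood water, ~0.0313-0.500 kg/ha a.i.; greenhouse 3-4 wk; visual 0-9 score vs control.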

CCOC(=O)CN1C(=O)C(C)SC1=Nc1cc(-n2c(=O)cc(C(F)(F)F)n(C)c2=O)c(F)cc1Cl (centres unmarked) [Compound 12]
SETVI preemergence herbicidal rating (SETVI (Foxtail, Green); rate 0.0156 kg/ha): 8.5
SETVI preemergence herbicidal rating (SETVI (Foxtail, Green); rate 0.0313 kg/ha): 9.0
SETVI preemergence herbicidal rating (SETVI (Foxtail, Green); rate 0.0625 kg/ha): 9.0
SETVI preemergence herbicidal rating (SETVI (Foxtail, Green); rate 0.1250 kg/ha): 9.0
SETVI preemergence herbicidal rating (SETVI (Foxtail, Green); rate 0.2500 kg/ha): 9.0
ORYSAT preemergence herbicidal rating (ORYSAT (Rice, Tebonnet); rate 0.0156 kg/ha): 0.0
ORYSAT preemergence herbicidal rating (ORYSAT (Rice, Tebonnet); rate 0.0313 kg/ha): 1.0
ORYSAT preemergence herbicidal rating (ORYSAT (Rice, Tebonnet); rate 0.0625 kg/ha): 4.0
ORYSAT preemergence herbicidal rating (ORYSAT (Rice, Tebonnet); rate 0.1250 kg/ha): 7.0
ORYSAT preemergence herbicidal rating (ORYSAT (Rice, Tebonnet); rate 0.2500 kg/ha): 7.0
Herbicidal rating SAGPY ([1]; 0.0313 kg/ha): 0.0
Herbicidal rating SAGPY ([1]; 0.0625 kg/ha): 1.0
Herbicidal rating SAGPY ([1]; 0.1250 kg/ha): 4.0
Herbicidal rating SAGPY ([1]; 0.2500 kg/ha): 0.0
TRZAWR herbicidal rating ([2]; rate 0.0156 kg/ha): 5.5
TRZAWR herbicidal rating ([2]; rate 0.0313 kg/ha): 7.0
TRZAWR herbicidal rating ([2]; rate 0.0625 kg/ha): 7.5
TRZAWR herbicidal rating ([2]; rate 0.1250 kg/ha): 7.5
CASOB herbicidal rating (CASOB (Sicklepod); rate 0.0156 kg/ha): 0.0
CASOB herbicidal rating (CASOB (Sicklepod); rate 0.0313 kg/ha): 3.0
CASOB herbicidal rating (CASOB (Sicklepod); rate 0.0625 kg/ha): 7.0
CASOB herbicidal rating (CASOB (Sicklepod); rate 0.1250 kg/ha): 9.0
Herbicidal rating SAGPY ([3]; rate 0.0313 kg/ha): 0.0
Herbicidal rating SAGPY ([3]; rate 0.0625 kg/ha): 1.0
Herbicidal rating SAGPY ([3]; rate 0.1250 kg/ha): 4.0
Herbicidal rating SAGPY ([3]; rate 0.2500 kg/ha): 0.0
GALAP preemergence herbicidal rating (GALAP (Galium) [4]; rate 0.0156 kg/ha): 0.0
GALAP preemergence herbicidal rating (GALAP (Galium) [4]; rate 0.0313 kg/ha): 0.0
GALAP preemergence herbicidal rating (GALAP (Galium) [4]; rate 0.0625 kg/ha): 9.0
GALAP preemergence herbicidal rating (GALAP (Galium) [4]; rate 0.1250 kg/ha): 9.0
GALAP preemergence herbicidal rating (GALAP (Galium) [4]; rate 0.2500 kg/ha): 9.0
AMBEL herbicidal rating (AMBEL (Ragweed, Common); rate 0.0156 kg/ha): 7.0
AMBEL herbicidal rating (AMBEL (Ragweed, Common); rate 0.0313 kg/ha): 9.0
AMBEL herbicidal rating (AMBEL (Ragweed, Common); rate 0.0625 kg/ha): 7.0
AMBEL herbicidal rating (AMBEL (Ragweed, Common); rate 0.1250 kg/ha): 9.0
Herbicidal rating CYPSE (CYPSE (Flatsedge); 0.0313 kg/ha): 1.0
Herbicidal rating CYPSE (CYPSE (Flatsedge); 0.0625 kg/ha): 3.0
Herbicidal rating CYPSE (CYPSE (Flatsedge); 0.1250 kg/ha): 1.0
Herbicidal rating CYPSE (CYPSE (Flatsedge); 0.2500 kg/ha): 6.0
Herbicidal rating MOOVA (MOOVA (Monochoria); 0.0313 kg/ha): 9.0
Herbicidal rating MOOVA (MOOVA (Monochoria); 0.0625 kg/ha): 9.0
Herbicidal rating MOOVA (MOOVA (Monochoria); 0.1250 kg/ha): 9.0
Herbicidal rating MOOVA (MOOVA (Monochoria); 0.2500 kg/ha): 9.0
GALAP herbicidal rating (GALAP (Galium) [5]; rate 0.0156 kg/ha): 3.0
GALAP herbicidal rating (GALAP (Galium) [5]; rate 0.0313 kg/ha): 5.0
GALAP herbicidal rating (GALAP (Galium) [5]; rate 0.0625 kg/ha): 7.0
GALAP herbicidal rating (GALAP (Galium) [5]; rate 0.1250 kg/ha): 8.0
Herbicidal rating ECHORC ([6]; rate 0.0313 kg/ha): 5.0
Herbicidal rating ECHORC ([6]; rate 0.0625 kg/ha): 9.0
Herbicidal rating ECHORC ([6]; rate 0.1250 kg/ha): 8.5
Herbicidal rating ECHORC ([6]; rate 0.2500 kg/ha): 9.0
GLXMAW herbicidal rating ([7]; rate 0.0156 kg/ha): 5.0
GLXMAW herbicidal rating ([7]; rate 0.0313 kg/ha): 7.0
GLXMAW herbicidal rating ([7]; rate 0.0625 kg/ha): 8.5
GLXMAW herbicidal rating ([7]; rate 0.1250 kg/ha): 8.0
Herbicidal rating ECHORC ([8]; 0.0313 kg/ha): 5.0
Herbicidal rating ECHORC ([8]; 0.0625 kg/ha): 9.0
Herbicidal rating ECHORC ([8]; 0.1250 kg/ha): 8.5
Herbicidal rating ECHORC ([8]; 0.2500 kg/ha): 9.0
